Results as given in US12265087B2, “Olfactory receptor as microglia marker and use thereof” (DAEGU GYEONGBUK INSTITUTE OF SCIENCE AND TECHNOLOGY, priority 2019, dated 2025).
Each block holds one compound with its values, some of them ahead of it.

Legend:
Olfr111 = experiment: Luciferase assay in Hana3A cells transfected with Olfr111; assay type: cell-based, mouse; conditions: for binding to Olfr1111: furan derivatives; for reactivity with Olfr111 (relative luciferase activity): Hana3A cells
Procedure: (§1) A Dual-Glo luciferase assay system (#E2940; Promega) was used for OR ligand screening. More specifically, Hana3A cells were seeded in white polystyrene 96-well plates (#353296; BD Biosciences) one day before transfection. pCRELuc (1 μg; #219076; Agilent Technologies), pRL-SV40 (1 μg; #E2231; Promega), RTP1S (1 μg), and OR (6 μg; or Mock) vectors were transfected for 24 hours in each plate. Analysis was performed using Lipofectamine 2000 (#11668-019; Thermo Fisher Scientific) according to the manufacturer's protocols. Transfected cells were stimulated at 37° C. for 4 hours with various concentrations of diluted odorants in a CD293 medium (#11913-019; Thermo Fisher Scientific). The activity of luciferase was normalized to that of Renilla luciferase. Luminescence was measured using a SpectraMax L microplate reader (Molecular Devices).

Olfr110 = target: T1, Olfr110 (Mus musculus, UniProt A2RT31); experiment: Luciferase assay in Hana3A cells transfected with Olfr110; assay type: cell-based; conditions: for binding to Olfr110: furan derivatives; for reactivity with Olfr110 (relative luciferase activity): Hana3A cells
T1 construct: Full-length odorant receptor genes from mouse and human genomic DNAs were amplified using appropriate primers; Lucy (N); Flag (N); Rho (N); expressed in transfected cells; host or cells: Hana3A cells, co-transfected with RTP1S, pCRELuc and pRL-SV40
T1 sequence (A2RT31 1-317): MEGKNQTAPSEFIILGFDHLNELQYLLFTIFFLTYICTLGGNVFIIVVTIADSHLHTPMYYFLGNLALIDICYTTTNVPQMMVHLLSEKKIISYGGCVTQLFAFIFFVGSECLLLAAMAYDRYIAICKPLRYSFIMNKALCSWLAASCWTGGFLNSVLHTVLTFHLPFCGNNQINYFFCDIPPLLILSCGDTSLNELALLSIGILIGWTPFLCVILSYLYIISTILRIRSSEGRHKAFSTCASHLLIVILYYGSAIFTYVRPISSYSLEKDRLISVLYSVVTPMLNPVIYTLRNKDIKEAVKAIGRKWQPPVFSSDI
Procedure: as §1

primary microglia [1] = experiment: ROS / superoxide generation in primary microglia; assay type: cell-based, mouse; conditions: for ROS generated with 2-PF co-treatment: Sup MOI 5 + 500 μM 2-PF, 2-EF 0, 100, 300, 500 μM; for ROS generation after 2-PF: inhibitor pretreatment, then 2-PF
Procedure: Superoxide concentrations were calculated by measuring the degree ofcytochrome c reduction using a VersaMax microplate reader (Babior et al., 1973). Microglia were cultured in a 96 well plate at a concentration of 1.0×10^5 cells/well, and the microglia were activated by a 10 μM ATP solution containing 2-PF and cytochrome c, or a solution in which Sup is mixed with cytochalasin B (5 μM; #C66762; Sigma Aldrich). The concentration of ROS was measured through a change in light absorption every minute for 25 minutes at 550 nm.
ROS levels were measured using 2′,7′-dichlorodihydrofluorescein diacetate (DCF-DA, #D6883; Sigma Aldrich) by a previously described method with minor modifications (Bae et al., 2001). More specifically, primary microglia were seeded in 24-well plates (5.0×10^5 cells/well) for 24 hours, and then treated with 10 μM DCF-DA at 37° C. for 30 minutes. One plate was treated with 2-PF, and the other one was not. The cells in each well were measured using a flow cytometer (FACS Accuri™ C6; BD Biosciences). MFI was measured as described above.

primary microglia [2] = experiment: Cytokine ELISA of primary microglia; assay type: cell-based, mouse; conditions: inhibitor pretreatment, then 2-PF
Procedure: The levels of expression of cytokines Tnf, i16 and I11b secreted from microglia were measured according to the manufacturer's protocols. More specifically, the levels were measured by ELISA 24 hours after treatment with 2-PF or a cell supernatant. The ELISA kit was purchased from BD Biosciences (#DY410 for Tnf; #DY406 for I16; #DY401 for I11b).

primary microglia [3] = experiment: Western blotting of phosphorylated signaling proteins in primary microglia; assay type: cell-based, mouse; conditions: inhibitor pre-cultivation, then 2-PF
Procedure: Cells and tissue were prepared using the T-PER® reagent (#78510; Thermo Fisher Scientific) containing protease inhibitors (#04-693-116-001; Roche Molecular Diagnostics) and DMSF (Sigma-Aldrich), and then lysed using a MagNA lyser (Roche Molecular Diagnostics). A total protein extract was quantified by the Bradford assay. The samples were dissolved in 7.5% SDS-PAGE or 4-20% gradient mini-PROTEIN TGX Precast Gels (#456-1064; Bio-Rad Laboratories), and then blotted on nitrocellulose membranes (#10600002; GE Healthcare). Afterward, the membranes were blocked for 1 hour in 5% non-fat dry milk and TBST, 0.1% TWEEN® 20 (#P9416; Sigma-Aldrich), and Tris-buffered saline, and then incubated with primary antibodies at 4° C. overnight. The antibodies were as follows: Olfr110 (36 kDa; 1:1,000; #ab177327; Abcam), anti-rhodopsin (39 kDa; 1:1,000; #MABN15; Millipore), CREB (43 kDa; 1:1,000; #9197; Cell Signaling Technology), phospho-CREB (43 kDa; 1:1,000; #9198; Cell Signaling Technology), ERK (44 kDa; 1:1,000; #sc094; Santa Cruz), phospho-ERK (42, 44 kDa; 1:1,000; #sc-7383; Santa Cruz), phospho-Akt (60 kDa; 1:500; sc-293125; Santa Cruz), phospho-JNK (46, 54 kDa; 1:500; sc-6254; Santa Cruz), phosphor-p38 (38 kDa; 1:1,000; sc-7973; Santa Cruz), and beta-Actin (45 kDa; 1:10,000; #4967; Cell Signaling Technology). In addition, as isotype-matched horseradish peroxidase-conjugated secondary antibodies, anti-rabbit IgG (#711-035-152; Jackson ImmunoResearch) diluted 1:100,000, and anti-mouse IgG (#715-035-150; Jackson ImmunoResearch) diluted 1:40,000 in TBST were used at room temperature for 2 hours. Immunoreactive protein bands were obtained using SuperSignal™ West Pico Chemiluminescent Substrate (#34080; Thermo Fisher Scientific).

[4] = system: Olfr920, Olfr1417 and Olfr99; conditions: also react with MOCK

SMILES: Cc1ccoc1C [2,3-dimethylfuran]
- binding to Olfr1111 (Olfr111): do not bind
- binding to Olfr110 (Olfr110): do not bind

- mode of action at Olfr110 (Olfr110): competitive inhibitor (antagonist)
- 2-PF activity on Olfr110 with co-treatment (Olfr110; 2-PF fixed at 300 μM, 2-EF 1 μM to 10 mM): 2-PF activity decreases
- Kd (Olfr110; 2-PF fixed at 300 μM, 2-EF 1 μM to 10 mM, read-out: Kd (competitive activity against 2-PF)): 120 µM
- binding to Olfr110 (Olfr110): do not bind
SMILES: CCc1ccco1 [2-EF, 2-ethylfuran]
- amount of ROS generated by 100 MOI Sup (primary microglia [1]; 2-EF pretreated at 0, 100, 300, 500 μM): diminished as the 2-EF level increases
- ROS generated with 2-PF co-treatment (primary microglia [1]): the higher the concentration of 2-EF added, the lower the concentration of the generated ROS
- ROS generated with 2-PF co-treatment (primary microglia [1]; listed as 2-ethylfuran): reduced
- binding to Olfr1111 (Olfr111): do not bind

- reactivity with Olfr110 (relative luciferase activity) (Olfr110): showed reactivity
SMILES: CCCCc1ccco1 [2-butylfuran]
- reactivity with Olfr111 (relative luciferase activity) (Olfr111): showed reactivity

- binding to Olfr110 (Olfr110): do not bind
SMILES: CCCCCCCc1ccco1 [2-heptylfuran]
- binding to Olfr1111 (Olfr111): do not bind

- reactivity with Olfr110 (relative luciferase activity) (Olfr110): showed reactivity
- binding to Olfr110 (Olfr110): do not bind
SMILES: CCCCCCc1ccco1 [2-hexylfuran]
- reactivity with Olfr111 (relative luciferase activity) (Olfr111): showed reactivity
- binding to Olfr1111 (Olfr111): do not bind

- binding to Olfr110 (Olfr110): do not bind
SMILES: Cc1ccco1 [2-methylfuran]
- binding to Olfr1111 (Olfr111): do not bind

- reactivity with Olfr110 (relative luciferase activity) (Olfr110): showed reactivity
SMILES: CCCc1ccco1 [2-propylfuran]
- reactivity with Olfr111 (relative luciferase activity) (Olfr111): showed reactivity

- reactivity with Olfr110 (relative luciferase activity) (Olfr110): showed reactivity
SMILES: CC(C)(C)c1ccco1 [2-t-butylfuran]
- reactivity with Olfr111 (relative luciferase activity) (Olfr111): showed reactivity

SMILES: O=S(=O)(NCCNC/C=C/c1ccc(Br)cc1)c1cccc2cnccc12 [H-89]
- Tnf and Il6 cytokine levels after 2-PF (primary microglia [2]): great decrease

SMILES: Nc1ncnc2c1ncn2C1CCCO1 (stereo not drawn) [SQ22536]
- Tnf and Il6 cytokine levels after 2-PF (primary microglia [2]): great decrease
- CREB and ERK phosphorylation (primary microglia [3]): greatly decreased

SMILES: COc1ccc2c(c1)CC[C@@H]1[C@@H]2CC[C@]2(C)[C@@H](NCCCCCCN3C(=O)C=CC3=O)CC[C@@H]12 [U73122, reference compound]
- ROS generation after 2-PF (primary microglia [1]): completely inhibited
- Tnf and Il6 cytokine levels after 2-PF (primary microglia [2]): relatively less decrease

- reactivity of the other three receptors [4]: non-specific reaction
SMILES: CCO [ethanol]

SMILES: O=C1OC2(c3ccccc31)c1ccc(O)c(O)c1Oc1c2ccc(O)c1O [gallein, reference compound]
- ROS generation after 2-PF (primary microglia [1]): similarly inhibited

SMILES: COc1cccc(-c2cc(=O)c3ccccc3o2)c1N [pd98059]
- Tnf and Il6 cytokine levels after 2-PF (primary microglia [2]): relatively less decrease
- CREB and ERK phosphorylation (primary microglia [3]): greatly decreased
